Measurements taken from PMC11406361, “Several orphan solute carriers functionally identified as organic cation transporters: Substrates specificity compared with known cation transporters” (The Journal of Biological Chemistry, 2024).

Tests used:
[1] = biological target: T1, SLC22A15 (Homo sapiens, UniProt Q8IZD6); assay: Uptake ratio screen, SLC22A15-overexpressing HEK293 over empty vector cells; assay type: cell-based; conditions: 2.5 μM (nicotine 10 μM), 2 min
T1 construct: by amplifying the entire gene-of-interest within the HEK293 genome via a long-range PCR
Method: (§1) Typically discussed substrates of the proton organic-cation antiporter ([14]) are highlighted in dark green in Figure 1.
(§2) In preparation for transport experiments, 24-well plates were pre-coated with poly-D-lysine (Sigma-Aldrich) and 300,000 cells were plated per well and incubated for 48 h. Firstly, the 24-well plate was placed on a heating plate at 37 °C, and the cells were washed with 37 °C HBSS^+ buffer (Hank’s balanced salt solution supplemented with 10 mM Hepes and adjusted to pH 7.4; Thermo Fisher Scientific). The substance-of-interest, which was diluted in 37 °C HBSS^+ to a desired concentration, was added to the cells for exactly 2 min. […] The uptake was stopped with ice-cold HBSS^+, and the 24-well plate was removed from the heating plate. The cells were washed twice with the cold HBSS^+ before they were lysed for 15 min with 80% (v/v) acetonitrile containing the respective internal standard for mass spectrometry. For variations in seeded cell numbers between the cell lines, several wells were lysed in RIPA buffer and used for total protein quantification using a bicinchoninic assay ([74]) and bovine serum albumin as calibration.
The intracellular drug concentrations after transport experiments were analyzed by high-performance liquid chromatography coupled to tandem mass spectrometry analysis. The HPLC consisted of a Shimadzu Nexera HPLC System with a SIL-30AC autosampler, a LC-30AD pump, a CTO-20AC column oven, and a CBM-20A controller (Shimadzu). The reverse-phase chromatography of compounds was accomplished with a Brownlee SPP RP-Amide column with 4.6 × 100 mm inner dimensions, a particle size of 2.7 μm, and a preceding Phenomenex C-18 guard column. The mobile phase was composed of an organic additive with acetonitrile:methanol 6:1 (v/v) in total concentrations between 3% and 50% (v/v) and 0.1% (v/v) formic acid in the aqueous component of the eluent. During separation, the column oven was held at 40 °C and the mobile phase was maintained at a flow rate of 300 or 400 μl/min. After separation, the detection of substances was performed with an API 4000 tandem mass spectrometer (AB SCIEX, https://sciex.com/support/software-support/software-downloads), followed by quantification of results with the Analyst software (AB SCIEX, version 1.6.2). The composition of chromatographic conditions, as well as detailed mass spectrometric detection parameters, are listed in Table S5.
(§3) Transport-mediated net uptake was determined as fold-increase of transporter-overexpressing cells over empty vector–transfected control cells.

[2] = biological target: T2, SLC35F2 (Homo sapiens, UniProt Q8IXU6)
T2 sequence (Q8IXU6 1-374): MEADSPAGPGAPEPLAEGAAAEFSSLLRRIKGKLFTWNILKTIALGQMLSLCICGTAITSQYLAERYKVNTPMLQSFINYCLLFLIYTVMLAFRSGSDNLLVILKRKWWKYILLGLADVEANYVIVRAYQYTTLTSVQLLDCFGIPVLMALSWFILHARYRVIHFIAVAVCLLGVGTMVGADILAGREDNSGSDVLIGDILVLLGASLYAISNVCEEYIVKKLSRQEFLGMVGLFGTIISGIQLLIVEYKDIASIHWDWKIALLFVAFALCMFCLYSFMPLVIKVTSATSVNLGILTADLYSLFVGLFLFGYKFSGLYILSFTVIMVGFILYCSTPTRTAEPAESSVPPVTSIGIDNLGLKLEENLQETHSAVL

[3] = biological target: T3, SLC35G3 (Homo sapiens, UniProt Q8N808)
[4] = biological target: SLC38A10 (Homo sapiens, UniProt Q9HBR0)
[5] = biological target: T3, SLC35G3; assay: Uptake ratio screen, SLC35G3-overexpressing HEK293 over empty vector cells; assay type: cell-based; set-up: by amplifying the entire gene-of-interest within the HEK293 genome via a long-range PCR; conditions: 2.5 μM substrate, 2 min, HEK293
[6] = biological target: T4, SLC35E2A (Homo sapiens, UniProt P0CK97)
[7] = biological target: T4, SLC35E2A; assay: Uptake ratio screen, SLC35E2A-overexpressing HEK293 over empty vector cells; assay type: cell-based; set-up: by amplifying the entire gene-of-interest within the HEK293 genome via a long-range PCR; conditions: 2.5 μM, 2 min
Method: as §1, §2
The intracellular drug concentrations after transport experiments were analyzed by high-performance liquid chromatography coupled to tandem mass spectrometry analysis. The HPLC consisted of a Shimadzu Nexera HPLC System with a SIL-30AC autosampler, a LC-30AD pump, a CTO-20AC column oven, and a CBM-20A controller (Shimadzu). The reverse-phase chromatography of compounds was accomplished with a Brownlee SPP RP-Amide column with 4.6 × 100 mm inner dimensions, a particle size of 2.7 μm, and a preceding Phenomenex C-18 guard column. […] After separation, the detection of substances was performed with an API 4000 tandem mass spectrometer (AB SCIEX, https://sciex.com/support/software-support/software-downloads), followed by quantification of results with the Analyst software (AB SCIEX, version 1.6.2). […]
as §3

T3 sequence (Q8N808 whole entry): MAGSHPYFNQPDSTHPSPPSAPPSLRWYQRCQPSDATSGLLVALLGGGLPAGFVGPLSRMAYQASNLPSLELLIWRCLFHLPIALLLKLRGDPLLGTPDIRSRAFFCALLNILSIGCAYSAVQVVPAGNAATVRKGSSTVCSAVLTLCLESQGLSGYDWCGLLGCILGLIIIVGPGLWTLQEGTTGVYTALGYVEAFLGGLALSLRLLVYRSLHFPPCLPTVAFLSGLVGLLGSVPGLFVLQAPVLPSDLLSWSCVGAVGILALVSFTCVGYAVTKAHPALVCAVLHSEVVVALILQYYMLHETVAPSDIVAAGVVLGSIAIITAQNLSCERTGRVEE
T4 sequence (P0CK97 whole entry): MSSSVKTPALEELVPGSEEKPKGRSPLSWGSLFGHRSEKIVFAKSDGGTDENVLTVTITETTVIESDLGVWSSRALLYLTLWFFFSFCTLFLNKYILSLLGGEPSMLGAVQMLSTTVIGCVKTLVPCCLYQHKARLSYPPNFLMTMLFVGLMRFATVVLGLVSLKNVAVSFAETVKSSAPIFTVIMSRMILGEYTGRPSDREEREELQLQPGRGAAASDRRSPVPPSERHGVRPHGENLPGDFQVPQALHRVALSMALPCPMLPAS
T1 sequence (Q8IZD6 whole entry): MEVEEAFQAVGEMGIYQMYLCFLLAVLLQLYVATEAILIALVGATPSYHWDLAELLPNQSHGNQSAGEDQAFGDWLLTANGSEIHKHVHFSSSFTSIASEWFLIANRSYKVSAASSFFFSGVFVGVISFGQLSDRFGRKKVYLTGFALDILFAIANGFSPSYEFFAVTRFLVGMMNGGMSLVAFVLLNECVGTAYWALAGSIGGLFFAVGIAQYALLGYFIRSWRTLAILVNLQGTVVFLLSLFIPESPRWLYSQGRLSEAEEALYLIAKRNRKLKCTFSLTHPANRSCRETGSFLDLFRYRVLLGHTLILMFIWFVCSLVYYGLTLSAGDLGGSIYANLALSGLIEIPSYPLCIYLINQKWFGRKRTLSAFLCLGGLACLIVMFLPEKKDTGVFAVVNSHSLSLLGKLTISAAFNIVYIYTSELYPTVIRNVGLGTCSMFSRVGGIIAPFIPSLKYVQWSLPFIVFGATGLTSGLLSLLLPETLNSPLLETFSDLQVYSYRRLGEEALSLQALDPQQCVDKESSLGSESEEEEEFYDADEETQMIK
Chain of SLC38A10 (Q9HBR0 whole entry): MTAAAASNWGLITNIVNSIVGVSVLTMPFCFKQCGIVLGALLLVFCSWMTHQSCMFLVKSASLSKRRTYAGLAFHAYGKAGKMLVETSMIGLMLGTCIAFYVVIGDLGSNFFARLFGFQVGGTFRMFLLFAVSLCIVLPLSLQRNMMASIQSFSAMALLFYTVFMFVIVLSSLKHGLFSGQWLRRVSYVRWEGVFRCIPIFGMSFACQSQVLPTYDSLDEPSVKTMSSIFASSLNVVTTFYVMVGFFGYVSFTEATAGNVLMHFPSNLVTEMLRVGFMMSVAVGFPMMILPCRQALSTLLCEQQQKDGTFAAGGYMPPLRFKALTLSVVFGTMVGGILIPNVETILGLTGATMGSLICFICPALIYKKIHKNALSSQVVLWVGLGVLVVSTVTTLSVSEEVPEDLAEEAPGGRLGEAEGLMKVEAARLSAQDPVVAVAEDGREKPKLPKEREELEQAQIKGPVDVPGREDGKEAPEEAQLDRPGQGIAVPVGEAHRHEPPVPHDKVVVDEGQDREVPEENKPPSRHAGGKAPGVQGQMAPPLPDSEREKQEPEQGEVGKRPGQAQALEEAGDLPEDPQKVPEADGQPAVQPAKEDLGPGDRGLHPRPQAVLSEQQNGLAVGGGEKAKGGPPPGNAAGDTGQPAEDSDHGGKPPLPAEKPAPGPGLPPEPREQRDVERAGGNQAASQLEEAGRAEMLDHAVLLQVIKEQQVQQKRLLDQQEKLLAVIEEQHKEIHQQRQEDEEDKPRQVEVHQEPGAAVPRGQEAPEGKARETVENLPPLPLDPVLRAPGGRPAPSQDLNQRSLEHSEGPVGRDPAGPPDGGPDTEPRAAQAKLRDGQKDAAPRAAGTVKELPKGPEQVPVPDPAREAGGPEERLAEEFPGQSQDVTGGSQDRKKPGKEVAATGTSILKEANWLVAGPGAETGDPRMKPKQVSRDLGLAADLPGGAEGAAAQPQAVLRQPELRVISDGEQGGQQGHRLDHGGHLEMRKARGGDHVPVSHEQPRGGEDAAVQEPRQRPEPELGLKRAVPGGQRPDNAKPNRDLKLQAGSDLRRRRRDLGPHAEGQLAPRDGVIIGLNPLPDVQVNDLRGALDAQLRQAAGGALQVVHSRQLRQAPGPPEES

Compound	Uptake by SLC22A15 (in words) [1]	Vmax (±SEM) ([2]; SLC35F2, HEK293, net uptake over empty vector cells)	Clint (±SEM) ([2]; human)	Km ([2]; read-out: KM (±SEM), SLC35F2, HEK293, net uptake over empty vector cells) [µM]	Clint (±SEM) [3]	Clint (±SEM) [4]	Uptake data for SLC35G3, mean value (fold-increase over empty vector control) [5]	Clint (±SEM) [6]	Uptake by SLC35E2A (in words) [7]
Clc1cccc(Cl)c1N=C1NCCN1 [Clonidine]	significantly increased the uptake	304 (±57.7) pmol × mg protein^-1 × min^-1	2.06 (±1.62) μl × mg protein^-1 × min^-1	147	4.85 (±3.17) μl × mg protein^-1 × min^-1	2.64 (±3.0) μl × mg protein^-1 × min^-1	1.54		
c1cnc2cc3c(cc2n1)[C@@H]1CNC[C@H]3C1 [Varenicline]	significantly increased the uptake						1.60	1.79 (±1.06) μl × mg protein^-1 × min^-1	relatively high activity
